# According to ChEMBL document CHEMBL2406938, “Inhibitors of the renal outer medullary potassium channel” (ACS Med Chem Lett, 2013):
# Assays:
# [1] = biological target: T1, ATP-sensitive inward rectifier potassium channel 1 (Homo sapiens) (UniProt P48048); assay: Inhibition of human Kir1.1 expressed in HEK293 cells by thallium flux assay; type: cell-based
# T1 sequence (whole entry): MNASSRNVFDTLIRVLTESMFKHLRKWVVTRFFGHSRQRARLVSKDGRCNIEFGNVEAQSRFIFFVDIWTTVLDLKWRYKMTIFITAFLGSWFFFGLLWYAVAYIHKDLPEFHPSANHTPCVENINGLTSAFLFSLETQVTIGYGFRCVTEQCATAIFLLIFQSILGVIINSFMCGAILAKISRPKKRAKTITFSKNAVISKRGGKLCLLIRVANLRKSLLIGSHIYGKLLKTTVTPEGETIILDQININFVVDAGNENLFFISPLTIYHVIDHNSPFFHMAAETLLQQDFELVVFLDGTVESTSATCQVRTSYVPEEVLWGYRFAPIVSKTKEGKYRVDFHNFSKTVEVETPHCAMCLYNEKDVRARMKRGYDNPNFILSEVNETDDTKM
# [2] = biological target: T1, ATP-sensitive inward rectifier potassium channel 1 (Homo sapiens); assay: Inhibition of human Kir1.1 expressed in CHO cells by whole cell voltage clamp assay; type: cell-based
SMILES,INH [1],INH [2]
Cc1c([C@H]2CN3CCN(C(=O)C4CCc5cc(-n6cnnn6)ncc54)C[C@H]3CN2)ccc(F)c1C#N (stereo not given in full),0.18 µM,0.1 µM
Cc1c([C@H]2CN3CCN(C(=O)C4CCc5nc(-n6cnnn6)ccc54)C[C@H]3CN2)ccc(F)c1C#N (stereo not given in full),0.16 µM,0.09 µM
N#Cc1c(F)ccc([C@@H]2CN3CCN(C(=O)C4CCc5cc(-n6cnnn6)ncc54)C[C@H]3CO2)c1F (stereo not given in full),0.16 µM,0.04 µM
N#Cc1c(F)ccc([C@@H]2CN3CCN(C(=O)C4CCc5nc(-n6cnnn6)ncc54)C[C@@H]3CO2)c1Cl (stereo not given in full),0.17 µM,0.06 µM

# More lines, now with the values ahead:
INH [1],INH [2],SMILES
–,0.06 µM,O=C1OCc2cc([C@H]3CN4CCN(C(=O)C5CCc6cc(-n7cnnn7)ncc65)C[C@H]4CO3)ccc21 (stereo not given in full)
0.54 µM,0.06 µM,Cc1c([C@@H]2CN3CCN(C(=O)C4CCc5nc(-n6cnnn6)ccc54)C[C@H]3CO2)csc1C#N (stereo not given in full)
0.11 µM,0.09 µM,O=C1OCc2cc([C@@H]3CN4CCN(C(=O)C5CCc6nc(-n7cnnn7)ccc65)C[C@H]4CO3)ccc21 (stereo not given in full)
0.14 µM,0.08 µM,Cc1c([C@@H]2CN3CCN(C(=O)C4CCc5nc(-n6cnnn6)ccc54)C[C@H]3CO2)ccc(F)c1C#N (stereo not given in full)
